The source of these data is US11299514B2, “Antimicrobial peptide AS-hepc3(48-56) of Acanthopagrus schlegelii and method thereof” (Xiamen University, priority 2019, dated 2022).

The subject of data set [1] is human kidney epithelial cells (293T). In words: in vitro. The data set is classed as cell-based. The source says: (§1) FIGS. 2A and 2B illustrate cytotoxicity experimental result diagrams of antimicrobial peptide AS-hepc3(48-56) obtained by an MTS-PMS method, wherein FIG. 2A represents AML12 cells (alpha mouse liver 12 cells), FIG. 2B represents 293T cells, the abscissa represents an AS-hepc3(48-56) protein concentration (μM), and the ordinate represents a cell proliferation rate (%).
(§2) 1. Mouse hepatocytes (AML12) (mouse liver cells) and human kidney epithelial cells (293T) were selected to detect a cytotoxicity of the antimicrobial peptide AS-hepc3(48-56).
(§3) 2. A detailed method is as follows.
(§4) (6) Well-grown mouse hepatocytes (AML12) and human kidney epithelial cells (293T) were collected, a cell concentration was adjusted to 10^3-10^4 cells/mL, the cells were evenly blown, and 100 μL of strain suspension was placed in each well of a 96-well cell culture plate and was static cultured at a condition of 37° C. and […]. More than 50% of the strains were adhered to a wall.
(§5) (7) The medium is carefully sucked out, a corresponding medium comprising different concentrations (0 μM, 40 μM, or 80 μM) was added and was static cultured for 24 hours at a condition of 37° C. and […].
(§6) (8) After 20 μL of MTS-PMS solution was added and was incubated for 3 hours in the dark, an OD492 value (optical density reading at 492 nm wavelength) was detected by a microplate reader to evaluate the cytotoxicity of the antimicrobial peptide AS-hepc3(48-56).

For data set [2], the system named is mouse hepatocytes (AML12). In words: in vitro. It is filed as cell-based.
Excerpt: as §1, §2, §3, §4, §5, §6

The next data set in a line: in vitro. The data set is classed as cell-based, human.
Excerpt: as §1, §2, §3, §4, §5, §6

The subject of data set [3] is Pseudomonas aeruginosa PAO1. In words: Comparative experiment of drug resistance (serial passage, change of MIC). It is filed as cell-based. The text has this: FIG. 1 illustrates a comparison of antimicrobial resistance of an antimicrobial peptide AS-hepc3(48-56) of Acanthopagrus schlegelii and antibiotic meropenem against Pseudomonas aeruginosa PAO1, wherein the abscissa represents time (days), and the ordinate represents a ratio of change of a minimum inhibition concentration (MIC) and an initial antimicrobial concentration.
1. Comparison of the antimicrobial peptide AS-hepc3(48-56) and antibiotic meropenem against Pseudomonas aeruginosa PAO1. Pseudomonas Aeruginosa PAO1 was purchased from the China General Microbiological Culture Collection Center, Institute of Microbiology, Chinese Academy of Sciences.
A detailed method is as follows:
(1) Preserved Pseudomonas aeruginosa PAO1 was streaked on MH plates and was cultured at 37° C. overnight;
(2) A single clone was screened and was cultured in MH liquid medium at 37° C. and 200 rpm to a logarithmic stage;
(3) The strain was corrected at 5000 g for 2 minutes, the strain was resuspended in 10 mM sodium phosphate buffer (pH=7.4), and the strain was finally diluted with a mixture of the 10 mM sodium phosphate buffer and the MH liquid medium to enable a final concentration of the stain to be 5×10^5 cfu/mL;
(4) Synthesized powder of the antimicrobial peptide AS-hepc3(48-56) was dissolved in sterile Milli-Q water, and a peptide concentration was diluted to 8 μM, 12 μM, 16 μM, 24 μM, 32 μM, 48 μM, 64 μM, or 96 μM in double ratios;
(5) Antibiotic meropenem powder was dissolved in sterile Milli-Q water to configure a 5 mg/mL reserved solution, filtered by a 0.22 μm filter membrane, and diluted to different work concentrations being 0.0625 μg/mL, 0.125 μg/mL, 0.25 μg/mL, 0.5 μg/mL, 1 μg/mL, 2 μg/mL, 4 μg/mL, 8 μg/mL, 16 μg/mL, 32 μg/mL, 48 μg/mL, 64 μg/mL, 96 μg/mL, 128 μg/mL, 192 μg/mL, 256 μg/mL, or 512 μg/mL; and
(6) On a 96-well cell culture plate, each test strain was arranged into a blank control group, a negative control group, and a test group, and three parallel groups of each test group were as follows: • a) Blank control group: 50 μL of test peptide sample and 50 μL of medium; • b) Negative control group: 50 μL of sterile Milli-Q water and 50 μL of strain suspension; and • c) Test group: 50 μL of the test peptide sample and 50 μL of the strain suspension.
The 96-well cell culture plate was placed in a 37° C. incubator and was cultured for 18-24 hours, and MIC results in the test group were observed. The strain having the maximum peptide concentration at which the growth of the strain could be observed was repeatedly diluted thousand-fold, and 50 μL was repeatedly taken for a next generation of antimicrobial experiments for 150 generations.

Data set [4] has as its system drug-resistant clinical Acinetobacter baumannii isolate QZ18055. It is filed as cell-based. As to conditions: A. baumannii QZ18055.
Excerpt: (§7) 1. Strains were as follows: Pseudomonas aeruginosa PAO1, drug-resistant clinical Pseudomonas aeruginosa isolates QZ19121, QZ19122, QZ19123, QZ19124, and QZ19125, drug-resistant clinical Acinetobacter baumannii isolates QZ18050 and QZ18055, clinical isolation of resistant Staphylococcus aureus QZ18090 and QZ18091, drug-resistant clinical Klebsiella pneumoniae isolate QZ18106, and drug-resistant clinical Escherichia coli isolates QZ18109 and QZ18110. Pseudomonas aeruginosa PAO1 was purchased from the China General Microbiological Culture Collection Center, Institute of Microbiology, Chinese Academy of Sciences, and the clinical isolates were from the Laboratory of Second Affiliated Hospital of Fujian Medical University.
as §3
(§8) (1) Preserved strains were streaked on MH plates (Mueller-Hinton agar plates) and were cultured at 37° C. overnight;
(§9) (2) A single clone was screened and was cultured in a MH liquid medium (Mueller-Hinton agar liquid medium) at 37° C. and 200 rpm (revolutions per minute) to a logarithmic stage;
(§10) (3) The strains were collected at 5000 g (i.e., a 5000 g centrifugal force) for 2 minutes, the strains were resuspended with a 10 mM (mmol/L) sodium phosphate buffer (pH=7.4), and the strains were finally diluted with the MH liquid medium to enable a final concentration of the strains to be 5×10^5 cfu/mL;
(§11) (4) Synthesized powder of the antimicrobial peptide AS-hepc3(48-56) was dissolved in sterile Milli-Q water, and a peptide concentration (i.e., a concentration of the antimicrobial peptide AS-hepc3(48-56)) was diluted to 2 μM, 4 μM, 8 μM, 16 μM, 32 μM, or 64 μM in double ratios; and
(§12) (5) On a polypropylene sterile 96-well culture plate, each test strain was arranged into a blank control group, a negative control group, and a test group, and three parallel groups of each test group were as follows: • a) Blank control group: 50 μL of test peptide sample (i.e., the antimicrobial peptide AS-hepc3(48-56)) and 50 μL of medium (i.e., the Mueller-Hinton agar liquid medium); • b) Negative control group: 50 μL of sterile Milli-Q water and 50 μL of strain suspension; and • c) Test group: 50 μL of test peptide sample and 50 μL of the strain suspension.
(§13) The polypropylene sterile 96-well culture plate was placed in a 37° C. incubator for 18-24 hours, and MIC results in the test group were observed. After the test group was pipetted and mixed, an appropriate amount of the strain was drawn and spread on the MH plate and was cultured at 37° C. overnight, and MBC results were observed.
(§14) Annotations: MIC: minimum inhibitory concentration (μM), which is represented by a-b; a is a maximum peptide concentration at which a growth of the strain can be observed by naked eyes, and b is a minimum peptide concentration at which no growth of the strain can be observed by the naked eyes. MBC: Minimum bactericidal concentration (μM), which is a concentration that kills 99.9% of microbes.

The subject of data set [5] is Pseudomonas aeruginosa PAO1. The data set is classed as cell-based.
Excerpt: as §7, §3, §8, §9, §10, §11, §12, §13, §14

For data set [6], the system named is drug-resistant clinical Escherichia coli isolate QZ18109. It is filed as cell-based. As to conditions: E. coli QZ18109.
Excerpt: as §7, §3, §8, §9, §10, §11, §12, §13, §14

Data set [7] has as its system drug-resistant clinical Pseudomonas aeruginosa isolate QZ19125. It is filed as cell-based. As to conditions: P. aeruginosa QZ19125.
Excerpt: as §7, §3, §8, §9, §10, §11, §12, §13, §14

Data set [8] has as its system drug-resistant clinical Pseudomonas aeruginosa isolate QZ19123. The data set is classed as cell-based. As to conditions: P. aeruginosa QZ19123.
Excerpt: as §7, §3, §8, §9, §10, §11, §12, §13, §14

Data set [9] deals with drug-resistant clinical Acinetobacter baumannii isolate QZ18050. It is filed as cell-based. The note with it: A. baumannii QZ18050.
Excerpt: as §7, §3, §8, §9, §10, §11, §12, §13, §14

Data set [10] concerns resistant Staphylococcus aureus QZ18090. The data set is classed as cell-based. The note with it: S. aureus QZ18090.
Excerpt: as §7, §3, §8, §9, §10, §11, §12, §13, §14

Data set [11] has as its system resistant Staphylococcus aureus QZ18091. It is filed as cell-based. The note with it: S. aureus QZ18091.
Excerpt: as §7, §3, §8, §9, §10, §11, §12, §13, §14

Data set [12] has as its system drug-resistant clinical Pseudomonas aeruginosa isolate QZ19124. It is filed as cell-based. The note with it: P. aeruginosa QZ19124.
Excerpt: as §7, §3, §8, §9, §10, §11, §12, §13, §14

The subject of data set [13] is drug-resistant clinical Escherichia coli isolate QZ18110. It is filed as cell-based. The note with it: E. coli QZ18110.
Excerpt: as §7, §3, §8, §9, §10, §11, §12, §13, §14

Data set [14] concerns drug-resistant clinical Klebsiella pneumoniae isolate QZ18106. It is filed as cell-based. The note with it: K. pneumoniae QZ18106.
Excerpt: as §7, §3, §8, §9, §10, §11, §12, §13, §14

Data set [15] has as its system drug-resistant clinical Pseudomonas aeruginosa isolate QZ19122. It is filed as cell-based. The note with it: P. aeruginosa QZ19122.
Excerpt: as §7, §3, §8, §9, §10, §11, §12, §13, §14

Data set [16] has as its system drug-resistant clinical Pseudomonas aeruginosa isolate QZ19121. It is filed as cell-based. As to conditions: P. aeruginosa QZ19121.
Excerpt: as §7, §3, §8, §9, §10, §11, §12, §13, §14

[17] abbreviates: human, 293T cells (human kidney epithelial cells).
Where [18] appears, read: mouse, AML12 cells (mouse hepatocytes).

Structures are written as SMILES. Converted amounts (≈) assume the structure as drawn. Peptide text beside a SMILES is read from it.

For `N=C(N)NCCC[C@H](NC(=O)[C@H](CS)NC(=O)[C@H](CCCNC(=N)N)NC(=O)[C@H](CCCNC(=N)N)NC(=O)[C@H](CCCNC(=N)N)NC(=O)[C@@H](N)CCCNC(=N)N)C(=O)N[C@@H](Cc1ccccc1)C(=O)N[C@@H](CS)C(=O)N[C@@H](CS)C(=O)O` [AS-hepc3(48-56), Arg-Arg-Arg-Arg-Cys-Arg-Phe-Cys-Cys] (H-RRRRCRFCC-OH; N-terminus and C-terminus assumed), the “cytotoxicity (in words)” value in data set [1] and in data set [2] was “no cytotoxicity” in each case. Also, the viability at 24 h, 40 µM in the data set “in vitro” (setting [17]) and in “in vitro” (setting [18]) was more than 95% throughout. Besides, the viability at 24 h, 80 µM in “in vitro” (setting [17]) and in “in vitro” (setting [18]) was more than 95% throughout. Also, the “anti-Pseudomonas aeruginosa MIC value relative to initial MIC value” in data set [3] (after 150 days of continuous use) is on record as “twice”. In addition, the MBC (in general, the smallest concentration meeting the test's criterion for killing) in data set [4] is more than 32 µM; in data set [5], 8 µM (≈ 10 µg/mL); in data set [6], 16 µM (≈ 20.1 µg/mL); in data set [7], 16 µM (≈ 20.1 µg/mL); in [8] it was 16 µM (≈ 20.1 µg/mL); in [9] it was more than 32 µM. For the same compound, the MBC in data set [10] is 8 µM (≈ 10 µg/mL); in data set [11] it was 8 µM (≈ 10 µg/mL); in data set [12], 16 µM (≈ 20.1 µg/mL); in data set [13], 8 µM (≈ 10 µg/mL); in data set [14] it was more than 32 µM; in data set [15] it was 16 µM (≈ 20.1 µg/mL). The same compound had an MBC in [16] of 16 µM (≈ 20.1 µg/mL). The MIC (as a rule, the least concentration at which growth counts as inhibited) is more than 32 µM in data set [4]; 4 to 8 µM in [5]; 4 to 8 µM in data set [6]; 8 to 16 µM in [7]; 4 to 8 µM in [8]; more than 32 µM in data set [9]. Also, the MIC was 4 to 8 µM in data set [10]; 4 to 8 µM in [11]; 4 to 8 µM in [12]; 4 to 8 µM in [13]; more than 32 µM in data set [14]; 4 to 8 µM in [15]. In addition, the MIC in data set [16] is 4 to 8 µM.
Turning to `C[C@@H](O)[C@H]1C(=O)N2C(C(=O)O)=C(S[C@@H]3CN[C@H](C(=O)N(C)C)C3)[C@H](C)[C@H]12` [meropenem], the “anti-Pseudomonas aeruginosa MIC value relative to initial MIC value” in [3] (after 3 days of continuous use) came out at 4 times; in data set [3] (after 10 days of continuous use) it was 16 times; in data set [3] (after 90 days of use) it was 1024 times.
